Patent publication US12570642B2, “GLP-IR modulating compounds” (Gilead Sciences, Inc., priority 2021, dated 2026)

Each compound was assayed against GLP-1R (Homo sapiens, UniProt P43220) (assay: GLP-1R Activation - cAMP Assay). Settings: cAMP increase in CHO cells stably expressing GLP-1R; each compound run on one of the two cAMP assays (Assay 1 or Assay 2, not specified).
Assay type: cell-based
Outline: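 CHO cells stably expressing GLP-1R, plated at 1,000 cells/well overnight, then equilibrated 1 h in HBSS with 20 mM Hepes and 0.1% BSA. Agonist added as 10-point dose response for 30 min at 37 °C. cAMP measured by HTRF (Cisbio Gs Dynamic kit); EC50 from sigmoidal fit.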

GLP-1R, sequence (P43220 24-463): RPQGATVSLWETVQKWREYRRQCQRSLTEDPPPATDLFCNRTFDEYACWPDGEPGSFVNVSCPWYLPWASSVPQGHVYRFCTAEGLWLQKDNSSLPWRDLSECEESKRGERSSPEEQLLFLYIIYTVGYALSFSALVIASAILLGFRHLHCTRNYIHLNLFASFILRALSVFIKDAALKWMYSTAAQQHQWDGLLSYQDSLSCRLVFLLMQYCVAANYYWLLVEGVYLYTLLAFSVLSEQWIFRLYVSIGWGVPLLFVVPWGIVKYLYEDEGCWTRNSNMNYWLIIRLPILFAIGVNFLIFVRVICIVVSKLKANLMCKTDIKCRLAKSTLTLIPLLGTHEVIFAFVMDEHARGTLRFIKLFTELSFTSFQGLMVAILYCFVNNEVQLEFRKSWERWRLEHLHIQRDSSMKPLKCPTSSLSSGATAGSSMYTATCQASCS

EC50 [pM] | SMILES
644 | CC1(C)COC[C@H]1n1c(Cc2cc(F)c(-c3cccc(OCc4ccc(Cl)cc4F)n3)cc2F)nc2ccc(C(=O)O)nc21 [Example 437, (S)-2-(4-(6-((4-chloro-2-fluorobenzyl)oxy)pyridin-2-yl)-2,5-difluorobenzyl)-3-(4,4-dimethyltetrahydrofuran-3-yl)-3H-imidazo[4,5-b]pyridine-5-carboxylic acid]
519 | CC1(C)COC[C@H]1n1c(Cc2cc(F)c(-c3cccc(OCc4ccc(Cl)cc4)n3)cc2F)nc2ccc(C(=O)O)nc21 [Example 438, (S)-2-(4-(6-((4-chlorobenzyl)oxy)pyridin-2-yl)-2,5-difluorobenzyl)-3-(4,4-dimethyltetrahydrofuran-3-yl)-3H-imidazo[4,5-b]pyridine-5-carboxylic acid]
171 | CC1(C)COC[C@H]1n1c(Cc2cc(F)c(-c3cccc(OCc4ccc(C#N)cc4F)n3)cc2F)nc2ccc(C(=O)O)nc21 [Example 439, (S)-2-(4-(6-((4-cyano-2-fluorobenzyl)oxy)pyridin-2-yl)-2,5-difluorobenzyl)-3-(4,4-dimethyltetrahydrofuran-3-yl)-3H-imidazo[4,5-b]pyridine-5-carboxylic acid]
956 | CC1(C)COC[C@H]1n1c(Cc2cc(F)c(-c3cccc(OCc4ccc(C#N)cc4)n3)cc2F)nc2ccc(C(=O)O)nc21 [Example 440, (S)-2-(4-(6-((4-cyanobenzyl)oxy)pyridin-2-yl)-2,5-difluorobenzyl)-3-(4,4-dimethyltetrahydrofuran-3-yl)-3H-imidazo[4,5-b]pyridine-5-carboxylic acid]
722 | CC1(C)COC[C@H]1n1c(Cc2cc(F)c(-c3ccc(F)c(OCc4ccc(Cl)cc4)n3)cc2F)nc2c(Cl)cc(C(=O)O)cc21 [Example 441, (S)-4-chloro-2-(4-(6-((4-chlorobenzyl)oxy)-5-fluoropyridin-2-yl)-2,5-difluorobenzyl)-1-(4,4-dimethyltetrahydrofuran-3-yl)-1H-benzo[d]imidazole-6-carboxylic acid]
42 | Cn1cc(-c2ccc(COc3cccc(-c4cc(F)c(Cc5nc6ccc(C(=O)O)cc6n5[C@@H]5COCC5(C)C)cc4F)n3)c(F)c2)nn1 [Example 442, (S)-2-(2,5-difluoro-4-(6-((2-fluoro-4-(1-methyl-1H-1,2,3-triazol-4-yl)benzyl)oxy)pyridin-2-yl)benzyl)-1-(4,4-dimethyltetrahydrofuran-3-yl)-1H-benzo[d]imidazole-6-carboxylic acid]
210 | CC1(C)COC[C@H]1n1c(Cc2cc(F)c(-c3cccc(OCc4ccc(-c5cnn(C(F)F)c5)cc4F)n3)cc2F)nc2ccc(C(=O)O)cc21 [Example 443, (S)-2-(4-(6-((4-(1-(difluoromethyl)-1H-pyrazol-4-yl)-2-fluorobenzyl)oxy)pyridin-2-yl)-2,5-difluorobenzyl)-1-(4,4-dimethyltetrahydrofuran-3-yl)-1H-benzo[d]imidazole-6-carboxylic acid]
365 | Cc1ncc(-c2ccc(COc3cccc(-c4cc(F)c(Cc5nc6ccc(C(=O)O)cc6n5[C@@H]5COCC5(C)C)cc4F)n3)c(F)c2)s1 [Example 444, (S)-2-(2,5-difluoro-4-(6-((2-fluoro-4-(2-methylthiazol-5-yl)benzyl)oxy)pyridin-2-yl)benzyl)-1-(4,4-dimethyltetrahydrofuran-3-yl)-1H-benzo[d]imidazole-6-carboxylic acid]
279 | Cc1ncc(-c2ccc(COc3cccc(-c4cc(F)c(Cc5nc6ccc(C(=O)O)cc6n5[C@@H]5COCC5(C)C)cc4F)n3)c(F)c2)o1 [Example 445, (S)-2-(2,5-difluoro-4-(6-((2-fluoro-4-(2-methyloxazol-5-yl)benzyl)oxy)pyridin-2-yl)benzyl)-1-(4,4-dimethyltetrahydrofuran-3-yl)-1H-benzo[d]imidazole-6-carboxylic acid]
200 | CC1(C)COC[C@H]1n1c(Cc2cc(F)c(-c3cccc(OCc4ccccc4C#N)n3)cc2F)nc2ccc(C(=O)O)cc21 [Example 446, (S)-2-(4-(6-((2-cyanobenzyl)oxy)pyridin-2-yl)-2,5-difluorobenzyl)-1-(4,4-dimethyltetrahydrofuran-3-yl)-1H-benzo[d]imidazole-6-carboxylic acid]
1390 | CC1(C)COC[C@H]1n1c(Cc2cc(F)c(-c3cc(C(F)F)cc(OCc4ccc(Cl)cc4F)n3)cc2F)nc2ccc(C(=O)O)cc21 [Example 447, (S)-2-(4-(6-((4-chloro-2-fluorobenzyl)oxy)-4-(difluoromethyl)pyridin-2-yl)-2,5-difluorobenzyl)-1-(4,4-dimethyltetrahydrofuran-3-yl)-1H-benzo[d]imidazole-6-carboxylic acid]
352 | CC1(C)COC[C@H]1n1c(Cc2cc(F)c(-c3cccc(OCc4ccc(-n5cncn5)cc4)n3)cc2F)nc2ccc(C(=O)O)cc21 [Example 448, (S)-2-(4-(6-((4-(1H-1,2,4-triazol-1-yl)benzyl)oxy)pyridin-2-yl)-2,5-difluorobenzyl)-1-(4,4-dimethyltetrahydrofuran-3-yl)-1H-benzo[d]imidazole-6-carboxylic acid]
21 | CC1(C)COC[C@H]1n1c(Cc2cc(F)c(-c3cccc(OCc4ccc(Cl)cc4C#N)n3)cc2F)nc2ccc(C(=O)O)cc21 [Example 449, (S)-2-(4-(6-((4-chloro-2-cyanobenzyl)oxy)pyridin-2-yl)-2,5-difluorobenzyl)-1-(4,4-dimethyltetrahydrofuran-3-yl)-1H-benzo[d]imidazole-6-carboxylic acid]
1040 | Cc1cc(COc2cccc(-c3cc(F)c(Cc4nc5ccc(C(=O)O)cc5n4[C@@H]4COCC4(C)C)cc3F)n2)c(F)cc1Cl [Example 450, (S)-2-(4-(6-((4-chloro-2-fluoro-5-methylbenzyl)oxy)pyridin-2-yl)-2,5-difluorobenzyl)-1-(4,4-dimethyltetrahydrofuran-3-yl)-1H-benzo[d]imidazole-6-carboxylic acid]
621 | CC1(C)COC[C@H]1n1c(Cc2cc(F)c(-c3cccc(OCc4ccc(F)c(F)c4F)n3)cc2F)nc2ccc(C(=O)O)cc21 [Example 451, (S)-2-(2,5-difluoro-4-(6-((2,3,4-trifluorobenzyl)oxy)pyridin-2-yl)benzyl)-1-(4,4-dimethyltetrahydrofuran-3-yl)-1H-benzo[d]imidazole-6-carboxylic acid]
564 | Cc1ccc(COc2cccc(-c3cc(F)c(Cc4nc5ccc(C(=O)O)cc5n4[C@@H]4COCC4(C)C)cc3F)n2)cc1Cl [Example 452, (S)-2-(4-(6-((3-chloro-4-methylbenzyl)oxy)pyridin-2-yl)-2,5-difluorobenzyl)-1-(4,4-dimethyltetrahydrofuran-3-yl)-1H-benzo[d]imidazole-6-carboxylic acid]
527 | CC1(C)COC[C@H]1n1c(Cc2cc(F)c(-c3cccc(OCc4c(F)cc(Cl)cc4F)n3)cc2F)nc2ccc(C(=O)O)cc21 [Example 453, (S)-2-(4-(6-((4-chloro-2,6-difluorobenzyl)oxy)pyridin-2-yl)-2,5-difluorobenzyl)-1-(4,4-dimethyltetrahydrofuran-3-yl)-1H-benzo[d]imidazole-6-carboxylic acid]
477 | CC1(C)COC[C@H]1n1c(Cc2cc(F)c(-c3cccc(OCc4cc(F)c(F)cc4Cl)n3)cc2F)nc2ccc(C(=O)O)cc21 [Example 454, (S)-2-(4-(6-((2-chloro-4,5-difluorobenzyl)oxy)pyridin-2-yl)-2,5-difluorobenzyl)-1-(4,4-dimethyltetrahydrofuran-3-yl)-1H-benzo[d]imidazole-6-carboxylic acid]
126 | CC1(C)COC[C@H]1n1c(Cc2cc(F)c(-c3cccc(OCc4cc(F)c(F)cc4F)n3)cc2F)nc2ccc(C(=O)O)cc21 [Example 455, (S)-2-(2,5-difluoro-4-(6-((2,4,5-trifluorobenzyl)oxy)pyridin-2-yl)benzyl)-1-(4,4-dimethyltetrahydrofuran-3-yl)-1H-benzo[d]imidazole-6-carboxylic acid]
332 | Cc1cc(F)c(COc2cccc(-c3cc(F)c(Cc4nc5ccc(C(=O)O)cc5n4[C@@H]4COCC4(C)C)cc3F)n2)cc1F [Example 456, (S)-2-(4-(6-((2,5-difluoro-4-methylbenzyl)oxy)pyridin-2-yl)-2,5-difluorobenzyl)-1-(4,4-dimethyltetrahydrofuran-3-yl)-1H-benzo[d]imidazole-6-carboxylic acid]
157 | CC1(C)COC[C@H]1n1c(Cc2cc(F)c(-c3cccc(OCc4ccc(F)c(F)c4)n3)cc2F)nc2ccc(C(=O)O)cc21 [Example 457, (S)-2-(4-(6-((3,4-difluorobenzyl)oxy)pyridin-2-yl)-2,5-difluorobenzyl)-1-(4,4-dimethyltetrahydrofuran-3-yl)-1H-benzo[d]imidazole-6-carboxylic acid]
315 | CC1(C)COC[C@H]1n1c(Cc2cc(F)c(-c3cccc(OCc4c(F)cc(F)cc4F)n3)cc2F)nc2ccc(C(=O)O)cc21 [Example 458, (S)-2-(2,5-difluoro-4-(6-((2,4,6-trifluorobenzyl)oxy)pyridin-2-yl)benzyl)-1-(4,4-dimethyltetrahydrofuran-3-yl)-1H-benzo[d]imidazole-6-carboxylic acid]
800 | Cc1cc(F)c(COc2cccc(-c3cc(F)c(Cc4nc5ccc(C(=O)O)cc5n4[C@@H]4COCC4(C)C)cc3F)n2)cc1Cl [Example 459, (S)-2-(4-(6-((5-chloro-2-fluoro-4-methylbenzyl)oxy)pyridin-2-yl)-2,5-difluorobenzyl)-1-(4,4-dimethyltetrahydrofuran-3-yl)-1H-benzo[d]imidazole-6-carboxylic acid]
96 | CC1(C)COC[C@H]1n1c(Cc2cc(F)c(-c3cccc(OCc4ccc(C#N)cc4Cl)n3)cc2F)nc2ccc(C(=O)O)cc21 [Example 460, (S)-2-(4-(6-((2-chloro-4-cyanobenzyl)oxy)pyridin-2-yl)-2,5-difluorobenzyl)-1-(4,4-dimethyltetrahydrofuran-3-yl)-1H-benzo[d]imidazole-6-carboxylic acid]
